Test results published in patent publication US20040034201A1, “Enhanced affinity hyaluronan binding peptides” (priority 1997, published 2004).
Like-named read-outs stand apart in the source and are kept apart here. Each block holds one compound with its values, some of them ahead of it.

Legend:
10T1/2 fibroblasts = assay: Cell proliferation in response to serum (hemocytometer counts); type: cell-based; details: 100 ug/mL peptide or PD98059 50 ug/mL, 48 h
Procedure: 10T1/2 fibroblasts were grown to semi-confluence and were incubated with enhanced affinity hyaluronan binding peptide (shown in SEQ.ID.NO.:3) at a concentration of 100 ug/mL for 48 h. The cells were then trypsinized in 0.12% trypsin and counted using a hematocytometer. Released cells were stained with trypan blue and only viable cells were counted.

[1] = test system: Ras-transformed 10T1/2 fibroblasts; assay: Apoptosis (Hoechst dye positive nuclei); type: cell-based; details: 100 ug/mL peptide or PD98059 50 ug/mL; 48 h
Procedure: Ras-transformed 10T1/2 fibroblasts were grown to sub-confluence and were incubated with enhanced affinity hyaluronan binding peptide (shown in SEQ.ID.NO.:3) at a concentration of 100 ug/mL for 48 h. The cells were then stained with Hoechst dye using standard procedures and the percentage of apoptotic cells were determined by detection of positive stain in the nucleus of randomly selected cells.

[2] = peptide of WO 93/21312 with carboxy-terminal histidine; cited from earlier work
[3] = HA binding of biotinylated peptides on HA-derivatized ELISA plates
Procedure: A 15-mer phage display library was obtained from Chiron Inc. (CA). Hyaluronan (HA) was biotinylated and mixed with streptavidin-sepharose (Sigma) and washed. The Biotinylated HA was incubated with the phage library, then recovered with streptavidin-sepharose. The phage biotinylated HA-streptavidin -sepharose mixture was washed 4 times with phosphate buffered saline (PBS) and recovered phage were plated on a bacteria lawn in petri dishes. Clones were isolated and assessed for their ability to bind to HA. For the first screen, a total 75 clones were obtained after 4 cycles of screening. To assess the specificity of binding of these clones to HA, two approaches were taken. In the first, the ability of the clones to bind to biotin-sepharose or to streptavidin-sepharose were assessed. Clones were recovered from the bacteria lawn and mixed with biotin-sepharose and streptavidin-sepharose. Sepharose beads were washed 4 times with PBS and plated onto a bacteria lawn. In the second assay, clones were mixed with excess (100 ug/mL) HA (mean molecular weight: 700,000 daltons (Hyal, Ontario, Canada) together with biotinylated HA. After mixing the biotinylated HA was recovered with streptavidin-sepharose, washed as above and plated onto a bacteria lawn. Clones were sequenced in an automatic sequencer. A schematic diagram illustrating the isolation of enhanced affinity hyaluronan binding peptides from the 15-mer phage display library is shown in FIG. 1.
Enhanced affinity HA binding peptides mimicking sequences obtained from the phage display library and scrambled peptides prepared from these sequences were tested for their HA binding properties. HA was derivatized to NUNC ELISA plates and biotinylated peptides were added to the plates and incubated for 2 h at room temperature. Plates were washed 4 times with PBS and then incubated with streptavidin-peroxidase for 1 h, washed, developed with hydrogen peroxide and their optical densities were determined. Controls were conducted using BSA-coated ELISA wells.

[4] = test system: Fibroblast (ras transformed); assay: Random locomotion by image analysis, ras-transformed 10T1/2 fibroblasts on fibronectin; type: cell-based
Procedure: (§1) Ras-transformed 10T1/2 or parental 10T1/2 fibroblasts (Egan, S. E. et al., Science 238: 202-205, 1987; Hardwick, C. et al., J. Biol. Chem. 117: 1343-1350, 1992) were cultured in DMEM containing 10% fetal bovine serum (FBS) and maintained in 5% CO2 humidified atmospheric condition. Every second passage, cells were maintained in 600 ug/mL G418 for one passage to select for maintenance of the mutant active ras-geneticin construct in cells. Cells were passaged at confluence and utilized under 20 passages. Macrophages were obtained from lung lavage 1 h after bleomycin insertion (Gelzleichter, T. R. et al., Fund. Appl. Toxicol. 30: 39-46, 1996) and used immediately in assays. Neutrophils were obtained from human blood as described and used immediately.
(§2) For routine analysis of random locomotion, 10T1/2 fibroblasts or leukocytes were subcultured into culture flasks coated with 20 ug/mL fibronectin and maintained in DMEM plus 10% FBS for 24-48 h. The enhanced affinity hyaluronan binding peptide (shown in SEQ.ID.NO.:3) or scrambled peptides were incubated with the cultures at concentrations of 50 ng to 1 ug per mL. […] Filming was conducted for up to 24 h with images recorded every 20 min.

Alveolar macrophages = assay: Random locomotion by image analysis, alveolar macrophages; type: cell-based; details: nuclear displacement by image analysis, n = 100 cells
Procedure: as §1, §2

Human neutrophils = assay: Chemotaxis in Boyden chamber, human neutrophils to IL-8; type: cell-based; details: MTT blue, n = 3 replicates, the values are: MTT absorbance (chemotaxis)
Procedure: as §1
(§3) To assess the effects of enhanced affinity hyaluronan binding peptides and scrambled peptides on chemotaxis, a modified multi-well boyden chamber was utilized as described by Shi, Y. et al. (J. Immunol. Methods 164: 149-154, 1993).

Rat alveolar macrophages = assay: Chemotaxis in Boyden chamber, rat alveolar macrophages to C5a; type: cell-based; details: MTT blue, n = 3 replicates, the values are: MTT absorbance (chemotaxis)
Procedure: as §1, §3

S1 macrophage cell line = assay: Chemotaxis in Boyden chamber, S1 macrophage cell line to C5a; type: cell-based; details: MTT blue, n = 3 replicates, the values are: MTT absorbance (chemotaxis)
Excerpt: as §3

punch biopsy wound = assay: Rat punch biopsy model of skin repair; type: in vivo
Procedure: Three-month-old female Fischer rats were anesthesized and subjected to […] full thickness punch biopsies. Wounds were filled with a sterile solution of 1% collagen type 1 gel containing either PBS alone, HA binding peptide (shown in SEQ.ID.NO.:3) (20 mg/mL) or scrambled peptide (20 mg/mL) that contained the same amino acids as the HA binding peptide but in a random order. 100 uL of the collagen solution was applied to the punch biopsy wound and allowed to gel over 20 min. The wounds were then covered with a protective plastic shield that was sewn into the skin. Wounds were recovered from euthenized rats with a 9 mm punch biopsy.
Recovered punch biopsies were extracted with RIPA buffer and total protein was determined with a Biorad protein assay. Protein (50 ug) was loaded onto each lane and proteins were separated by electrophoresis on SDS-PAGE. Separated proteins were transferred to a nitrocellulose blot and the blot was processed for reactivity to anti-RHAMM antisera or anti-CD44 antibody (Dillon, P. W. et al., J. Surg. Res. 57: 170-173, 1994).
Messenger RNA was isolated by Micro-FastTrack Kit (Invitrogen, San Diego, Calif.). The quality of RNA samples was confirmed by denaturing gel electrophoresis. Reverse transcription was performed by using First Strand cDNA Synthesis kit (Clontech, Polo Alco, Calif.). Briefly, 0.2 ug of mRNA was used to generate cDNA using oligo(dT) 18 primer. Samples containing 0.2 ug of mRNA per time point was heat-denatured in DEPC-treated water for 2 min at 70° C. and incubated at 42° C. for 1 h in a total volume of 20 uL of 20 pmol primers, 0.5 mM of each dNTP, 1 unit/uL of RNase inhibitor and 200 units/ug RNA of MMLV. The reaction was stopped by heating at 94° C. for 5 min and to destroy any DNase activity. The reaction mixture was diluted to a final volume of 100 uL and aliquots were stored at −80° C. until further use.
To distinguish between amplication of genomic DNA and complementary DNA, the primer pairs were designed to enclose at least one intron on the genomic sequences of RHAMM and beta-actin. […]

ability to bind HA [3]: can bind to HA
Compound: STMMSRSHKTRSCHH

ability to bind HA [3]: can bind to HA
Compound: STMMSRSHKTRSHH
Concentrations optimal for inhibiting cell motility ([4]; 10T1/2 fibroblasts or leukocytes, tested 50 ng to 1 ug per mL): 50 to 100 ng/mL
Rate of Locomotion, random locomotion ([4]; Fibroblast (ras transformed), nuclear displacement by image analysis, n = 100 cells): 10.83 ± 1.07 um/h
Rate of Locomotion, random locomotion (Alveolar macrophages): 3.24 ± 0.53 um/h
Rate of Locomotion, chemotaxis (Human neutrophils): 0.088 ± 0.009
Rate of Locomotion, chemotaxis (Rat alveolar macrophages): 0.425 ± 0.028
Rate of Locomotion, chemotaxis (S1 macrophage cell line): 0.238 ± 0.014
Number of Cells (×10^6) (10T1/2 fibroblasts): 2.4 ± 0.2 ×10^6
% Hoechst Positive Nuclei [1]: 4.9 ± 0.9%
HA accumulation within the remodelling dermal layer (punch biopsy wound; at 24 h, biotinylated aggrecan staining): increase in HA accumulation
keratinocyte resurfacing of the wound (re-epithelialization) (punch biopsy wound; rat, applied in collagen gel to the wound, 24 h after injury): inhibited keratinocyte resurfacing of the wound
number of fibroblasts at the wound site (punch biopsy wound; rat, peptide 20 mg/mL in collagen gel): reduced the number of fibroblasts

ability to bind HA [3]: Enhanced affinity binding
Compound: STMMSRSHKTRSHHV [peptide of the Formula III with a valine residue at the C-terminal]

The remaining lines, values behind:

Compound: COc1cccc(-c2cc(=O)c3ccccc3o2)c1N [PD98059, reference compound]
Number of Cells (×10^6) (10T1/2 fibroblasts): 0.5 ± 0.1 ×10^6
% Hoechst Positive Nuclei [1]: 40 ± 2.5%

Compound: KLRSQLVHHH
ability to bind HA [2]: unable to bind to HA

Compound: TMTRPHFHKRQLVLS
ability to bind HA [3]: Enhanced affinity binding
